Columns and labels:
[1] = test system: mice subjected to fetal reprogramming; assay: Treadmill endurance test of mice subjected to fetal reprogramming; format: in vivo
Protocol: Before the experiment, mice were exercised for 5 minutes at a speed of 7 meters/min for two days so as to be adapted to exercising equipment. On day 3, the main experiment was conducted. As for the method for experiment, the mice were made to run at a speed of 10 meter/min for 60 minutes, and after that, the speed was increased at 1 meter/min once every 15 minutes until the maximum speed reaches 15 meters/min. As for the male mice, the running time was increased by 2.9 fold ([…], P<0.0001, n=6) and the running distance was increased by 3.0 fold (9927±1168 versus 3303±394 m, P<0.0001) in the PPAR δ agonist (CMDD1111)-administered mouse group than the control mouse group.
The Experiment using pregnant C57BL/6 mice was conducted in order to verify an endurance enhancement effect by fetal reprogramming of CMDD1226. […]
The experiment for verifying the fetal reprogramming effect of GW501516 and determining the optimum administration period thereof was conducted. The experiment method was shown in FIG. 1, and the experiment was conducted with respect to three kinds of administration periods (gestation period, lactation period, and both of gestation and lactation periods). As the experiment result, the group administered with PPAR δ agonist only during the gestation period had 2.6-fold and 3.2-fold increases in the running time and the running distance, respectively, and the group administered with PPAR δ agonist only during the lactation period had 2.4-fold and 3.0-fold increases in the running time and the running distance, respectively, as compared with the control group. The group administered with PPAR δ agonist during both the gestation and lactation periods had the most obvious increase in endurance, and had 5.1-fold and 6.6-fold increases as compared with the control group (FIG. 22).
The animal test was conducted in order to verify the muscle endurance enhancement and muscular function improvement effects of the material according to the present invention. […] […] The test using a treadmill was conducted in order to confirm the effect of this muscular fiber change on muscle endurance enhancement and muscular function improvement.

HDL in serum = assay: High-density lipoprotein cholesterol (HDL) in serum; format: in vivo; settings: mice fed 10% fat feedstuff over 6 weeks
Source text: High-density lipoprotein cholesterol (HDL) has been known to play an important role in treating lipid metabolic disorders such as arteriosclerosis and hyperlipidemia while lowering the cholesterol level of an epidermal cell and mitigating an inflammatory reaction. Serum was separated from the mice fed over a 6-week period of feedstuff containing 10% fat in order to confirm the high-density cholesterol increase effect of Compounds 5 and 9, which were the developed materials of the present invention.

[2] = test system: slow muscle fibers and endurance; settings: cited from earlier work
hPPAR δ = target: T1, hPPAR δ (Homo sapiens, UniProt Q03181); assay: Transfection assay in CV-1 cells, hPPAR δ; format: cell-based; settings: luciferase reporter
T1 construct: expressed in transfected cells; host or cells: CV-1 cells
T1 sequence (Q03181 1-441): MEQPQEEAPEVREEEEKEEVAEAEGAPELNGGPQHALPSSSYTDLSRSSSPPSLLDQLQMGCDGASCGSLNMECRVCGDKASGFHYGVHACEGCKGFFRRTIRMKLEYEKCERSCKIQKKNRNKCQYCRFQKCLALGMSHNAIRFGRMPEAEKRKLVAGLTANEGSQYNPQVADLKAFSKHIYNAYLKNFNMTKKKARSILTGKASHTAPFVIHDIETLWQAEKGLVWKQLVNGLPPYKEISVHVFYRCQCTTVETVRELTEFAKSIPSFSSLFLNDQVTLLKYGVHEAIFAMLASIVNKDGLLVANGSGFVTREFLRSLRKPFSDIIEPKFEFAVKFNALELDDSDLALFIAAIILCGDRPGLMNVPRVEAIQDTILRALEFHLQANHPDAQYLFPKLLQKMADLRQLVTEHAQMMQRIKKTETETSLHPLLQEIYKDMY
Protocol: (§1) This assay was conducted by using CV-1 cells. The cells were cultured on a 96-well plate with a DMEM medium containing 10% FBS, DBS (delipidated), and 1% penicillin/streptomycin in 37° C. of an incubator 5% of carbon dioxide. Test was conducted in four stages of cell inoculation, transfection, treatment with the developed material, and result confirmation. The CV-1 cells were inoculated on the 96-well plate at a cell density at 5,000 cells/well, and after 24 hours, transfection was performed. PPARs plasmid DNA, reporter DNA, and β-galactosidase DNA were mixed with a transfection reagent, and then used to treat the cells. The developed material was dissolved in dimethylsulfoxide (DMSO), and then was used to treat the cells by using media at various concentrations. After 24 hours of culturing in an incubator, the cells were lysed with a lysis buffer and luciferase activity and β-galactosidase activity were measured using a luminometer and a microplate reader. The measured luciferase value was calibrated with the β-galactosidase value, and this value was depicted on a graph and EC50 was determined.

hPPARa = target: T2, hPPARa (Homo sapiens, UniProt Q07869); assay: Transfection assay in CV-1 cells, hPPARa; format: cell-based; settings: luciferase reporter
T2 construct: expressed in transfected cells; host or cells: CV-1 cells
T2 sequence (Q07869 1-468): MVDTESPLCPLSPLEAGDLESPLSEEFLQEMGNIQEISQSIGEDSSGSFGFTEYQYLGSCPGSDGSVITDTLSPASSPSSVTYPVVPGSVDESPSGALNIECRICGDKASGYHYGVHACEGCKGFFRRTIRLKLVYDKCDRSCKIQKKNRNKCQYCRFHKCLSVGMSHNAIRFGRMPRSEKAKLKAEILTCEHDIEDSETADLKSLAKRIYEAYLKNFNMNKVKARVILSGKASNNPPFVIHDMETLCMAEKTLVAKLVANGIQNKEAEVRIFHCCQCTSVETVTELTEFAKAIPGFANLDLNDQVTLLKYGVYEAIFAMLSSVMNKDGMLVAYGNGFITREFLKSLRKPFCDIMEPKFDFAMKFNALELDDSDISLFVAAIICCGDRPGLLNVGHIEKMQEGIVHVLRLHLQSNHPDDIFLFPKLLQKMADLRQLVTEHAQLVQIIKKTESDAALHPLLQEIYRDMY
Protocol: as §1

hPPARg = target: T3, hPPARg (Homo sapiens, UniProt P37231); assay: Transfection assay in CV-1 cells, hPPARg; format: cell-based; settings: luciferase reporter
T3 construct: expressed in transfected cells; host or cells: CV-1 cells
T3 sequence (P37231 1-505): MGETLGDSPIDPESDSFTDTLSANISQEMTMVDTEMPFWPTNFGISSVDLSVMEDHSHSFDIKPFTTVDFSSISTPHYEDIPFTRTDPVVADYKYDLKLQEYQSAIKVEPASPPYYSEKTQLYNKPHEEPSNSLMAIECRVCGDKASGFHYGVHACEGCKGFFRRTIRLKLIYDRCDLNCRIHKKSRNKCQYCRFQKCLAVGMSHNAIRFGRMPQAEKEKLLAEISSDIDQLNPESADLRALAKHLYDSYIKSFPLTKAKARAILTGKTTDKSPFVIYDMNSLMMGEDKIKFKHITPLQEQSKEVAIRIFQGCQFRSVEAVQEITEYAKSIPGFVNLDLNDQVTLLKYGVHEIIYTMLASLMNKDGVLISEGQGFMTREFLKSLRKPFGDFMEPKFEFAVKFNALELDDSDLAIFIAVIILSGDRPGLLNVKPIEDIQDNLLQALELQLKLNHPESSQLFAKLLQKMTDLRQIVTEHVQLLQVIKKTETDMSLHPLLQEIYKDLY
Protocol: as §1

[3] = administered during both gestation and lactation periods
[4] = administered only during the gestation period
[5] = administered only during the lactation period
[6] = C57BL/6, maternal 10 mg/kg/day gestation and lactation, 7-week old

SMILES	EC50 (hPPAR δ)	EC50 hPPARa (hPPARa)	EC50 hPPARg (hPPARg)	other results
Cc1cc(SCc2sc(-c3ccc(C(F)(F)F)cc3)nc2C)ccc1OCC(=O)O [GW501516, reference compound]	–	–	–	increase in the running distance versus control [1, 3]: 6.6 fold; increase in the running time versus control [1, 3]: 5.1 fold; increase in the running distance versus control [1, 4]: 3.2 fold; increase in the running time versus control [1, 4]: 2.6 fold; increase in the running distance versus control [1, 5]: 3.0 fold; increase in the running time versus control [1, 5]: 2.4 fold; HDL increase in serum (HDL in serum): 29%; improvement in slow muscle fibers and endurance ([2]; administration alone to an adult): did not show improvement; slow muscle fibers and endurance ([2]; simultaneous combination of exercise and administration): generated slow muscle fibers and enhanced endurance
Cc1cc(SC(Cc2ccc(-c3cc(F)c(F)c(F)c3)cc2)c2sc(-c3ccc(C(F)(F)F)cc3)nc2C)ccc1OCC(=O)O (stereo not drawn) [Compound 13]	8.8 nM	ia	ia	–
Cc1cc([Se]C(Cc2ccccc2)c2sc(-c3ccc(C(F)(F)F)cc3)nc2C)ccc1OCC(=O)O (stereo not drawn) [CMDD1226]	–	–	–	increase in the running distance versus control [1, 6]: 2.0 fold; increase in the running time versus control [1, 6]: 1.9 fold
Cc1cc(SC(Cc2c(F)cccc2Cl)c2sc(-c3ccc(C(F)(F)F)cc3)nc2C)ccc1OCC(=O)O (stereo not drawn) [CMDD1112]	–	–	–	endurance enhancement effect ([1]; 1 mg/kg/day): not exhibited; endurance enhancement effect ([1]; 2 mg/kg/day): not exhibited; running distance enhancement ([1]; 5 mg/kg/day): 1.5 fold; running time enhancement ([1]; 5 mg/kg/day): 1.4 fold

Second part, led by results:

EC50 (hPPAR δ)	EC50 hPPARa (hPPARa)	EC50 hPPARg (hPPARg)	SMILES	other results
4.6 nM	ia	ia	CCOC(=O)COc1ccc(SC(Cc2ccc(-c3ccc(F)c(Cl)c3)cc2)c2sc(-c3ccc(C(F)(F)F)cc3)nc2C)cc1C (stereo not drawn) [Compound 28]	–
6.1 nM	ia	ia	Cc1cc(SC(Cc2ccc(-c3cccc(C(F)(F)F)c3)cc2)c2sc(-c3ccc(C(F)(F)F)cc3)nc2C)ccc1OCC(=O)O (stereo not drawn) [Compound 25]	–
41.4 nM	ia	ia	Cc1cc(SC(Cc2cc(-c3ccc(F)cc3)no2)c2sc(-c3ccc(C(F)(F)F)cc3)nc2C)ccc1OCC(=O)O (stereo not drawn) [Compound 33]	–
6.4 nM	ia	ia	Cc1cc(SC(Cc2ccc(-c3ccc(C(F)(F)F)cc3)cc2)c2sc(-c3ccc(C(F)(F)F)cc3)nc2C)ccc1OCC(=O)O (stereo not drawn) [Compound 17]	–
10.6 nM	ia	ia	Cc1cc(SC(Cc2ccc(-c3ccc(C(F)(F)F)cc3)nc2)c2sc(-c3ccc(C(F)(F)F)cc3)nc2C)ccc1OCC(=O)O (stereo not drawn) [Compound 21]	–

From patent US20130197043A1, “USE OF THE FETAL REPROGRAMMING OF A PPAR AGONIST” (SNU R&DB FOUNDATION, priority 2010, published 2013)
